Measurements as given in ChEMBL document CHEMBL3885861, “Open TG-GATES”.

Species: Rattus norvegicus
Experiment: Open TG-GATES - Regimen: Single
Format: toxicity, organism-based, Sprague-Dawley
Parameters: regimen Single, gender Male, age 6 weeks
Conditions: in vivo, ip, 1500 mg/kg, route intraperitoneal injection, dose level High; for APTT / Bas / Eos / Fbg / Hb / Ht / Lym / MCH / MCHC / MCV / Mono / Neu / PT / Plat / RBC / Ret / WBC: tissue Blood; for KIDNEY_L / KIDNEY_R / KIDNEY_TOTAL: tissue Kidney; for LIVER: tissue Liver; for A/G / ALP / ALT / AST / BUN / CRE / Ca / Cl / DBIL / GLC / IP / K / LDH / Na / PL / RALB / TBIL / TC / TG / TP / gamma-GTP: tissue Plasma

Molecule `CCCCS(=N)(=O)CCC(N)C(=O)O` (configuration not stated) [BUTHIONINE SULFOXIMINE] has a TERMINAL_BW (3 h) of 213.4 g, an APTT (3 h) of 16 s and a Bas (3 h) of 0%. It also gave an Eos (3 h) of 1%, a Fbg (3 h) of 216.4 mg/dL and a Hb (3 h) of 13.2 g/dL. For the same molecule, the Ht (3 h) was 39.5%, the Lym (3 h) was 61.4% and the MCH (3 h) was 21.6 pg. For the same molecule, the MCHC (3 h) was 33.4%, the MCV (3 h) was 64.7 fL and the Mono (3 h) was 9.2%. It also gave a Neu (3 h) of 29%, a PT (3 h) of 12 s and a Plat (3 h) of 119.7 x10_4/uL. The RBC (3 h) was 610.4 x10_4/ul, the Ret (3 h) was 8.8% and the WBC (3 h) was 106.8 x10_2/uL. The KIDNEY_L (3 h) was 0.9 g, the KIDNEY_R (3 h) was 1 g and the KIDNEY_TOTAL (3 h) was 1.9 g. It also gave an LIVER (3 h) of 10.1 g, an A/G (3 h) of 2.2 and an ALP (3 h) of 832 IU/L. It also gave an ALT (3 h) of 43.4 IU/L, an AST (3 h) of 48 IU/L and a BUN (3 h) of 15.2 mg/dL. The CRE (3 h) was 0.4 mg/dL, the Ca (3 h) was 10.9 mg/dL and the Cl (3 h) was 104.8 meq/L. It also gave a DBIL (3 h) of 0.066 mg/dL, a GLC (3 h) of 191.2 mg/dL and an IP (3 h) of 9.8 mg/dL. It also gave a K (3 h) of 4.5 meq/L, an LDH (3 h) of 89.2 IU/L and a Na (3 h) of 138.8 meq/L. It also gave a PL (3 h) of 137.8 mg/dL, an RALB (3 h) of 3.8 g/dL and a TBIL (3 h) of 0.3 mg/dL. The TC (3 h) was 70.2 mg/dL, the TG (3 h) was 57.8 mg/dL and the TP (3 h) was 5.5 g/dL. It also gave a gamma-GTP (3 h) of 1 IU/L, a TERMINAL_BW (6 h) of 215.9 g and an APTT (6 h) of 16.4 s. It also gave a Bas (6 h) of 0%, an Eos (6 h) of 0.8% and a Fbg (6 h) of 218.6 mg/dL. It also gave a Hb (6 h) of 13.3 g/dL, a Ht (6 h) of 39.6% and a Lym (6 h) of 67.2%. It also gave an MCH (6 h) of 22 pg, an MCHC (6 h) of 33.6% and an MCV (6 h) of 65.5 fL. For the same molecule, the Mono (6 h) was 6.6%, the Neu (6 h) was 25.6% and the PT (6 h) was 10.8 s. It also gave a Plat (6 h) of 124.2 x10_4/uL, an RBC (6 h) of 605 x10_4/ul and a Ret (6 h) of 8.3%. It also gave a WBC (6 h) of 104.4 x10_2/uL, a KIDNEY_L (6 h) of 0.9 g and a KIDNEY_R (6 h) of 1 g. For the same molecule, the KIDNEY_TOTAL (6 h) was 1.9 g, the LIVER (6 h) was 9 g and the A/G (6 h) was 1.9. It also gave an ALP (6 h) of 696.6 IU/L, an ALT (6 h) of 31 IU/L and an AST (6 h) of 56.2 IU/L. For the same molecule, the BUN (6 h) was 11.6 mg/dL, the CRE (6 h) was 0.7 mg/dL and the Ca (6 h) was 10.9 mg/dL. The Cl (6 h) was 104.6 meq/L, the DBIL (6 h) was 0.004 mg/dL and the GLC (6 h) was 189.2 mg/dL. It also gave an IP (6 h) of 10 mg/dL, a K (6 h) of 4.5 meq/L and an LDH (6 h) of 107.8 IU/L. It also gave a Na (6 h) of 140 meq/L, a PL (6 h) of 138.6 mg/dL and an RALB (6 h) of 3.5 g/dL. It also gave a TBIL (6 h) of 0.3 mg/dL, a TC (6 h) of 80.8 mg/dL and a TG (6 h) of 46.4 mg/dL. It also gave a TP (6 h) of 5.4 g/dL, a gamma-GTP (6 h) of 1.6 IU/L and a TERMINAL_BW (9 h) of 211.3 g. For the same molecule, the APTT (9 h) was 17.8 s, the Bas (9 h) was 0% and the Eos (9 h) was 0.8%. For the same molecule, the Fbg (9 h) was 255.4 mg/dL, the Hb (9 h) was 13.6 g/dL and the Ht (9 h) was 40.4%. For the same molecule, the Lym (9 h) was 57.4%, the MCH (9 h) was 21.8 pg and the MCHC (9 h) was 33.7%. For the same molecule, the MCV (9 h) was 64.8 fL, the Mono (9 h) was 5.2% and the Neu (9 h) was 36.6%. For the same molecule, the PT (9 h) was 11.3 s, the Plat (9 h) was 119.4 x10_4/uL and the RBC (9 h) was 623.4 x10_4/ul. For the same molecule, the Ret (9 h) was 8.2%, the WBC (9 h) was 103.7 x10_2/uL and the KIDNEY_L (9 h) was 1 g. For the same molecule, the KIDNEY_R (9 h) was 1 g, the KIDNEY_TOTAL (9 h) was 1.9 g and the LIVER (9 h) was 8.6 g. It also gave an A/G (9 h) of 1.9, an ALP (9 h) of 782.6 IU/L and an ALT (9 h) of 27 IU/L. It also gave an AST (9 h) of 47.4 IU/L, a BUN (9 h) of 12.2 mg/dL and a CRE (9 h) of 0.5 mg/dL. The Ca (9 h) was 11.3 mg/dL, the Cl (9 h) was 106.2 meq/L and the DBIL (9 h) was 0.012 mg/dL. It also gave a GLC (9 h) of 202.4 mg/dL, an IP (9 h) of 9.2 mg/dL and a K (9 h) of 4.9 meq/L. It also gave an LDH (9 h) of 89.4 IU/L, a Na (9 h) of 138.6 meq/L and a PL (9 h) of 137.6 mg/dL. For the same molecule, the RALB (9 h) was 3.7 g/dL, the TBIL (9 h) was 0.3 mg/dL and the TC (9 h) was 80.8 mg/dL. It also gave a TG (9 h) of 37.6 mg/dL, a TP (9 h) of 5.6 g/dL and a gamma-GTP (9 h) of 1.4 IU/L. It also gave a TERMINAL_BW (24 h) of 224.8 g, an APTT (24 h) of 16.6 s and a Bas (24 h) of 0%. The Eos (24 h) was 1.4%, the Fbg (24 h) was 273.2 mg/dL and the Hb (24 h) was 13.3 g/dL. For the same molecule, the Ht (24 h) was 39.7%, the Lym (24 h) was 73.8% and the MCH (24 h) was 21.7 pg. The MCHC (24 h) was 33.5%, the MCV (24 h) was 64.8 fL and the Mono (24 h) was 7.2%. For the same molecule, the Neu (24 h) was 17.8%, the PT (24 h) was 11.7 s and the Plat (24 h) was 119.6 x10_4/uL. The RBC (24 h) was 613.4 x10_4/ul, the Ret (24 h) was 9.3% and the WBC (24 h) was 98.2 x10_2/uL. It also gave a KIDNEY_L (24 h) of 1 g, a KIDNEY_R (24 h) of 1 g and a KIDNEY_TOTAL (24 h) of 2 g. For the same molecule, the LIVER (24 h) was 10.5 g, the A/G (24 h) was 1.8 and the ALP (24 h) was 1035 IU/L. For the same molecule, the ALT (24 h) was 29.4 IU/L, the AST (24 h) was 52.6 IU/L and the BUN (24 h) was 19 mg/dL. It also gave a CRE (24 h) of 0.5 mg/dL, a Ca (24 h) of 11.3 mg/dL and a Cl (24 h) of 104.2 meq/L. For the same molecule, the DBIL (24 h) was 0.024 mg/dL, the GLC (24 h) was 205 mg/dL and the IP (24 h) was 8.7 mg/dL. It also gave a K (24 h) of 4.7 meq/L, an LDH (24 h) of 104.8 IU/L and a Na (24 h) of 139 meq/L. It also gave a PL (24 h) of 143.6 mg/dL, an RALB (24 h) of 3.7 g/dL and a TBIL (24 h) of 0.3 mg/dL. It also gave a TC (24 h) of 81.6 mg/dL, a TG (24 h) of 67.4 mg/dL and a TP (24 h) of 5.8 g/dL. It also gave a gamma-GTP (24 h) of 1.4 IU/L.
